Assay results as given in patent US10201564B2, “Methods of using inhaled nitric oxide gas for treatment of acute respiratory distress syndrome in children” (Mallinckrodt Hospital Products IP Limited, priority 2014, dated 2019).

System: pediatric subjects with acute hypoxemic respiratory failure (AHRF)
Assay: Pediatric AHRF study: adverse events, serious adverse events, deaths, discontinuations
Type: in vivo, human
Conditions: 5 ppm
Protocol: This was a prospective, multicenter, randomized, double-blind, placebo-controlled, parallel-group study of the safety and efficacy of inhaled nitric oxide in pediatric subjects with acute hypoxemic respiratory failure (AHRF). The subjects were randomized to receive either 5 ppm inhaled nitric oxide or placebo.
Nitric Oxide for inhalation at 5 ppm was administered continuously into the inspiratory limb of the ventilator circuit in mechanically ventilated subjects using a blinded version of the INOvent® delivery system.
Subjects received 100% treatment gas (nitric oxide 5 ppm or placebo [nitrogen gas]) until Day 28 or extubation, whichever occurred first.
This was a prospective, multicenter, randomized, double-blind, placebo-controlled, Phase III study to assess the effects of nitric oxide for inhalation in the treatment of acute hypoxic respiratory failure (AHRF) in pediatric subjects. The study population consisted of male and female pediatric subjects, aged 44 weeks postconceptional age to 16 years age, who were admitted to the pediatric intensive care unit (PICU) and who required intubation because of AHRF. The inclusion/exclusion criteria are described in the Patients section below.
Standardized ventilatory management and weaning procedures were used. Ventilatory management was used based on an “open lung approach” using positive end-expiratory pressure (PEEP) to increase lung volume and limiting tidal volumes to reduce plateau pressures. Subjects received nitric oxide for inhalation at 5 ppm or placebo (100% Grade 5 nitrogen gas) into the inspiratory limb of the ventilator circuit using a blinded version of the INOvent® delivery system. The subjects were treated until Day 28 or extubation, whichever occurred first. Subjects were assessed daily using a spontaneous breathing trial, according to the institution's standard of care. Arterial blood gases (ABG), ventilator settings, methemoglobin, oxygenation index, systolic blood pressure, diastolic blood pressure, Pediatric Risk of Mortality (PRISM) III score, and subject positioning (prone or supine) were performed/recorded at specified times during the study. Selected centers also performed plasma cytokine assays, bronchoalveolar lavage fluid (BALF) assays, and a 6-month follow-up assessment.

[1] = AE in which death was the outcome
[2] = AE not suspected related to study treatment
[3] = AE suspected related to study treatment
[4] = AE with death as outcome, not suspected related to treatment

[N]=O [Nitric Oxide, nitric oxide]
most frequently reported AEs: bradycardia and hypotension
subjects who died during the follow-up period after treatment: 1
subjects who died during treatment: 2
frequency of treatment discontinuation due to AEs (1 of 26 subjects, placebo 6.9%): 3.9%
subjects with serious AEs (SAEs) (1 of 26 subjects, placebo 27.6%): 3.9%
subjects with severe AEs (2 subjects, placebo 34.5%): 7.7%
subjects reporting AEs (16 of 26 subjects, placebo 72.4%): 61.5%
Bradycardia [1]: 1 (3.8%) n (%)
Brain edema [1]: 0 (0.0) n (%)
Cardiac arrest [1]: 0 (0.0) n (%)
Diabetic ketoacidosis [1]: 0 (0.0) n (%)
Hemolytic anemia [1]: 0 (0.0) n (%)
Hepatic failure [1]: 0 (0.0) n (%)
Hypotension [1]: 1 (3.8%) n (%)
Intracranial pressure increased [1]: 0 (0.0) n (%)
Multi-organ failure [1]: 0 (0.0) n (%)
Pancreatitis [1]: 0 (0.0) n (%)
Pneumonia, aspergillus [1]: 0 (0.0) n (%)
Pulmonary hemorrhage [1]: 0 (0.0) n (%)
Renal failure [1]: 0 (0.0) n (%)
Renal impairment [1]: 0 (0.0) n (%)
Sepsis [1]: 0 (0.0) n (%)
Abdominal distension [2]: 0 (0.0) n (%)
Acidosis [2]: 1 (3.8%) n (%)
Agitation [2]: 2 (7.7%) n (%)
Anemia [2]: 1 (3.8%) n (%)
Apnea [2]: 1 (3.8%) n (%)
Arrhythmia [2]: 1 (3.8%) n (%)
Ascites [2]: 1 (3.8%) n (%)
Bacteremia [2]: 2 (7.7%) n (%)
Bacteria, blood [2]: 1 (3.8%) n (%)
Bacteria, sputum [2]: 0 (0.0) n (%)
Bladder distension [2]: 0 (0.0) n (%)
Bradycardia [2]: 3 (11.5%) n (%)
Brain edema [2]: 0 (0.0) n (%)
Bronchoalveolar lavage [2]: 1 (3.8%) n (%)
C-reactive protein increased [2]: 0 (0.0) n (%)
Cardiac arrest [2]: 0 (0.0) n (%)
Cerebral artery occlusion [2]: 0 (0.0) n (%)
Chest tube insertion [2]: 1 (3.8%) n (%)
Deep vein thrombosis [2]: 2 (7.7%) n (%)
Device failure [2]: 0 (0.0) n (%)
Diabetic ketoacidosis [2]: 0 (0.0) n (%)
Diarrhea [2]: 0 (0.0) n (%)
Disseminated intravascular coagulation [2]: 0 (0.0) n (%)
Empyema [2]: 0 (0.0) n (%)
Feeding disorder [2]: 0 (0.0) n (%)
Fungemia [2]: 1 (3.8%) n (%)
Fungus culture positive [2]: 0 (0.0) n (%)
Fungus urine test positive [2]: 0 (0.0) n (%)
Gastrointestinal hemorrhage [2]: 0 (0.0) n (%)
Generalized edema [2]: 0 (0.0) n (%)
Grangrene [2]: 1 (3.8%) n (%)
Hematuria [2]: 0 (0.0) n (%)
Hemoglobinemia [2]: 1 (3.8%) n (%)
Hemolytic anemia [2]: 0 (0.0) n (%)
Hemopneumothorax [2]: 0 (0.0) n (%)
Hemorrhage [2]: 0 (0.0) n (%)
Hemothorax [2]: 0 (0.0) n (%)
Hepatic failure [2]: 0 (0.0) n (%)
Hepatosplenomegaly [2]: 1 (3.8%) n (%)
Hyperammonemia [2]: 0 (0.0) n (%)
Hypercalcemia [2]: 1 (3.8%) n (%)
Hypercapnia [2]: 0 (0.0) n (%)
Hyperchloremia [2]: 1 (3.8%) n (%)
Hyperglycemia [2]: 1 (3.8%) n (%)
Hyperkalemia [2]: 1 (3.8%) n (%)
Hyperlipidemia [2]: 0 (0.0) n (%)
Hypernatremia [2]: 2 (7.7%) n (%)
Hypertension [2]: 0 (0.0) n (%)
Hypocalcemia [2]: 1 (3.8%) n (%)
Hypochloremia [2]: 0 (0.0) n (%)
Hypokalemia [2]: 2 (7.7%) n (%)
Hypotension [2]: 3 (11.5%) n (%)
Hypothermia [2]: 0 (0.0) n (%)
Hypoxia [2]: 0 (0.0) n (%)
Intracranial pressure increased [2]: 0 (0.0) n (%)
Labile blood pressure [2]: 0 (0.0) n (%)
Leukocytosis [2]: 1 (3.8%) n (%)
Lung infection, pseudomonal [2]: 0 (0.0) n (%)
Medical device removal [2]: 0 (0.0) n (%)
Metabolic acidosis [2]: 0 (0.0) n (%)
Metabolic alkalosis [2]: 1 (3.8%) n (%)
Multi-organ failure [2]: 0 (0.0) n (%)
Ocular icterus [2]: 0 (0.0) n (%)
Oliguria [2]: 0 (0.0) n (%)
Oxygen saturation decreased [2]: 2 (7.7%) n (%)
Pancreatitis [2]: 0 (0.0) n (%)
Pleural effusion [2]: 0 (0.0) n (%)
Pneumomediastinum [2]: 0 (0.0) n (%)
Pneumonia [2]: 1 (3.8%) n (%)
Pneumonia, aspergillus [2]: 0 (0.0) n (%)
Pneumonia, staphylococcal [2]: 1 (3.8%) n (%)
Pneumothorax [2]: 2 (7.7%) n (%)
Pruritus [2]: 0 (0.0) n (%)
Pseudomonal sepsis [2]: 1 (3.8%) n (%)
Pulmonary hemorrhage [2]: 0 (0.0) n (%)
Pulmonary hypertension [2]: 0 (0.0) n (%)
Pyrexia [2]: 0 (0.0) n (%)
Renal failure [2]: 1 (3.8%) n (%)
Renal failure, acute [2]: 0 (0.0) n (%)
Renal impairment [2]: 0 (0.0) n (%)
Respiratory acidosis [2]: 0 (0.0) n (%)
Respiratory failure [2]: 1 (3.8%) n (%)
Sepsis [2]: 0 (0.0) n (%)
Skin injury [2]: 0 (0.0) n (%)
Subdural hematoma [2]: 0 (0.0) n (%)
Thrombocythemia [2]: 1 (3.8%) n (%)
Thrombocytopenia [2]: 0 (0.0) n (%)
Tracheitis [2]: 2 (7.7%) n (%)
Unevaluable event [2]: 2 (7.7%) n (%)
Urinary tract infection [2]: 1 (3.8%) n (%)
Urinary tract infection, fungal [2]: 1 (3.8%) n (%)
Urine output decreased [2]: 1 (3.8%) n (%)
White blood cell count increased [2]: 0 (0.0) n (%)
Abdominal distension [3]: 0 (0.0) n (%)
Acidosis [3]: 0 (0.0) n (%)
Agitation [3]: 0 (0.0) n (%)
Anemia [3]: 0 (0.0) n (%)
Apnea [3]: 0 (0.0) n (%)
Arrhythmia [3]: 0 (0.0) n (%)
Ascites [3]: 0 (0.0) n (%)
Bacteremia [3]: 0 (0.0) n (%)
Bacteria, blood [3]: 0 (0.0) n (%)
Bacteria, sputum [3]: 0 (0.0) n (%)
Bladder distension [3]: 0 (0.0) n (%)
Bradycardia [3]: 0 (0.0) n (%)
Brain edema [3]: 0 (0.0) n (%)
Bronchoalveolar lavage [3]: 0 (0.0) n (%)
C-reactive protein increased [3]: 0 (0.0) n (%)
Cardiac arrest [3]: 0 (0.0) n (%)
Cerebral artery occlusion [3]: 0 (0.0) n (%)
Chest tube insertion [3]: 0 (0.0) n (%)
Deep vein thrombosis [3]: 0 (0.0) n (%)
Device failure [3]: 0 (0.0) n (%)
Diabetic ketoacidosis [3]: 0 (0.0) n (%)
Diarrhea [3]: 0 (0.0) n (%)
Disseminated intravascular coagulation [3]: 0 (0.0) n (%)
Empyema [3]: 0 (0.0) n (%)
Feeding disorder [3]: 0 (0.0) n (%)
Fungemia [3]: 0 (0.0) n (%)
Fungus culture positive [3]: 0 (0.0) n (%)
Fungus urine test positive [3]: 0 (0.0) n (%)
Gastrointestinal hemorrhage [3]: 0 (0.0) n (%)
Generalized edema [3]: 0 (0.0) n (%)
Grangrene [3]: 0 (0.0) n (%)
Hematuria [3]: 0 (0.0) n (%)
Hemoglobinemia [3]: 0 (0.0) n (%)
Hemolytic anemia [3]: 0 (0.0) n (%)
Hemopneumothorax [3]: 0 (0.0) n (%)
Hemorrhage [3]: 0 (0.0) n (%)
Hemothorax [3]: 0 (0.0) n (%)
Hepatic failure [3]: 0 (0.0) n (%)
Hepatosplenomegaly [3]: 0 (0.0) n (%)
Hyperammonemia [3]: 0 (0.0) n (%)
Hypercalcemia [3]: 0 (0.0) n (%)
Hypercapnia [3]: 0 (0.0) n (%)
Hyperchloremia [3]: 0 (0.0) n (%)
Hyperglycemia [3]: 0 (0.0) n (%)
Hyperkalemia [3]: 0 (0.0) n (%)
Hyperlipidemia [3]: 0 (0.0) n (%)
Hypernatremia [3]: 0 (0.0) n (%)
Hypertension [3]: 0 (0.0) n (%)
Hypocalcemia [3]: 0 (0.0) n (%)
Hypochloremia [3]: 0 (0.0) n (%)
Hypokalemia [3]: 0 (0.0) n (%)
Hypotension [3]: 0 (0.0) n (%)
Hypothermia [3]: 0 (0.0) n (%)
Hypoxia [3]: 0 (0.0) n (%)
Intracranial pressure increased [3]: 0 (0.0) n (%)
Labile blood pressure [3]: 0 (0.0) n (%)
Leukocytosis [3]: 0 (0.0) n (%)
Lung infection, pseudomonal [3]: 0 (0.0) n (%)
Medical device removal [3]: 0 (0.0) n (%)
Metabolic acidosis [3]: 0 (0.0) n (%)
Metabolic alkalosis [3]: 0 (0.0) n (%)
Multi-organ failure [3]: 0 (0.0) n (%)
Ocular icterus [3]: 0 (0.0) n (%)
Oliguria [3]: 0 (0.0) n (%)
Oxygen saturation decreased [3]: 0 (0.0) n (%)
Pancreatitis [3]: 0 (0.0) n (%)
Pleural effusion [3]: 0 (0.0) n (%)
Pneumomediastinum [3]: 0 (0.0) n (%)
Pneumonia [3]: 0 (0.0) n (%)
Pneumonia, aspergillus [3]: 0 (0.0) n (%)
Pneumonia, staphylococcal [3]: 0 (0.0) n (%)
Pneumothorax [3]: 0 (0.0) n (%)
Pruritus [3]: 0 (0.0) n (%)
Pseudomonal sepsis [3]: 0 (0.0) n (%)
Pulmonary hemorrhage [3]: 0 (0.0) n (%)
Pulmonary hypertension [3]: 0 (0.0) n (%)
Pyrexia [3]: 0 (0.0) n (%)
Renal failure [3]: 0 (0.0) n (%)
Renal failure, acute [3]: 0 (0.0) n (%)
Renal impairment [3]: 0 (0.0) n (%)
Respiratory acidosis [3]: 0 (0.0) n (%)
Respiratory failure [3]: 0 (0.0) n (%)
Sepsis [3]: 0 (0.0) n (%)
Skin injury [3]: 0 (0.0) n (%)
Subdural hematoma [3]: 0 (0.0) n (%)
Thrombocythemia [3]: 0 (0.0) n (%)
Thrombocytopenia [3]: 0 (0.0) n (%)
Tracheitis [3]: 0 (0.0) n (%)
Unevaluable event [3]: 0 (0.0) n (%)
Urinary tract infection [3]: 0 (0.0) n (%)
Urinary tract infection, fungal [3]: 0 (0.0) n (%)
Urine output decreased [3]: 0 (0.0) n (%)
White blood cell count increased [3]: 0 (0.0) n (%)
Bradycardia [4]: 1 (3.8%) n (%)
Brain edema [4]: 0 (0.0) n (%)
Cardiac arrest [4]: 0 (0.0) n (%)
Diabetic ketoacidosis [4]: 0 (0.0) n (%)
Hemolytic anemia [4]: 0 (0.0) n (%)
